The conditions of this data set: in vivo.

As for `NC(=O)C1=C(O)C[C@@H]2C[C@@H]3Cc4cccc(O)c4C(=O)C3=C(O)[C@]2(O)C1=O` [CMT-3, 6-demethyl-6-deoxy-4-dedimethylaminotetracycline], the “plasma concentrations in humans” value was “about 1.0 μg/ml”.

Values taken from patent US20230113011A1, “METHODS OF TREATING ILLNESSES CAUSED BY CORONAVIRUS, SWINE FLU AND AVIAN FLU” (CMTx Biotech Inc., priority 2020, published 2023).
